We go through two molecules from PMC2583053, “snoRNA, a Novel Precursor of microRNA in Giardia lamblia” (PLoS Pathogens, 2008).

For data set [1], the target named is T1, GlAgo (Giardia Argonaute) (Giardia duodenalis, UniProt A8BCK6).
T1 construct: gene Ago; full-length ORF from Giardia genomic DNA in pET28b, His-tagged (C-terminal His6 encoded by reverse primer), expressed in E. coli BL21(DE3) with chaperones, Ni-NTA purified; strain WB is printed for the trophozoites used, not for the cloning DNA
T1 sequence (A8BCK6 1-900): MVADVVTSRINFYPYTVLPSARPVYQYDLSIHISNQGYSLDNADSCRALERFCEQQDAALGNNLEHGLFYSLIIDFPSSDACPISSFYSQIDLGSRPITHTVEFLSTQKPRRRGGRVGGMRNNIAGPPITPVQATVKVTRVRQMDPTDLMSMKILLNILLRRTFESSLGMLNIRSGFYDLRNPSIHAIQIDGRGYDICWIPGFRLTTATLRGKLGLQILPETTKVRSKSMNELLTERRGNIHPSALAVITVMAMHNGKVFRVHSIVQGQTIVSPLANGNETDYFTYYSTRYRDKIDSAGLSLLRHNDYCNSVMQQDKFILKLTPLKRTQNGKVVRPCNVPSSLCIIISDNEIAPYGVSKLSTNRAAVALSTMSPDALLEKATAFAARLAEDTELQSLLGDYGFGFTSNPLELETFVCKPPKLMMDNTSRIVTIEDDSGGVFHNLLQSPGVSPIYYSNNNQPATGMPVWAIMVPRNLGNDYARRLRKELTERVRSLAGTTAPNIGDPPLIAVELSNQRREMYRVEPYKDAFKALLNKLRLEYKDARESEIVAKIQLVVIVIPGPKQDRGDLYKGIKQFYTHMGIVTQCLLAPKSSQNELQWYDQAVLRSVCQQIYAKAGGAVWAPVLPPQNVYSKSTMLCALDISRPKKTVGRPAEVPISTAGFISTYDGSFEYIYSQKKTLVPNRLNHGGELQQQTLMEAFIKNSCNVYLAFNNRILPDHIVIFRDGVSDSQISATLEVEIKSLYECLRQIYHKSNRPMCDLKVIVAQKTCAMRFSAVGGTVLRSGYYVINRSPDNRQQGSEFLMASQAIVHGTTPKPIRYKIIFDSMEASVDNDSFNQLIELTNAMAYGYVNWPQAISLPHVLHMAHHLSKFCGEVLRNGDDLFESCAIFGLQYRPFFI
Kind of data set: m7GpppG-Sepharose affinity retention, elution with free m7GpppG, anti-His Western blot. The format is binding. As to conditions: 20 mM HEPES pH 7.4, 150 mM KCl, 1 mM EDTA, 2 mM DTT; washed with 0.1 mM GTP, eluted with 0.1 mM m7GpppG.

The target in data set [2] is T2, GlAgo (Giardia Argonaute) (Giardia lamblia, UniProt A8BCK6 1-900).
T2 sequence: T1 sequence (A8BCK6 1-900)
As to the kind of experiment: EMSA; 10 ng miR2; competed by unlabeled miR2 and by yeast RNA (no sequence specificity); EMSA: native 6% polyacrylamide gel, 10 ng radiolabeled miR2; binding buffer, pH and temperature not given in the material. The note with it: protein: recombinant; tags: C-terminal 6xHis (encoded in reverse primer S6); single strand.

Take `C[n+]1cn([C@@H]2O[C@H](COP(=O)(O)OP(=O)(O)OP(=O)(O)OC[C@H]3O[C@@H](n4cnc5c(=O)[nH]c(N)nc54)[C@H](O)[C@@H]3O)[C@@H](O)[C@H]2O)c2nc(N)[nH]c(=O)c21` [m^7GpppG]: the “m7GpppG-Sepharose affinity retention, elution with free m7GpppG, anti-His Wester” value in data set [1] was “the protein was specifically eluted off the Sepharose beads with m^7GpppG”. Turning to CAGCCUAAUCACCGCCCCUAUAGUCC (ssRNA) [miR2], in data set [2], the binding result is on record as “binds”.
